Experimental data as given in US8796323B2, “Defensin-like molecules as novel antimicrobial agents” (University of Maryland, Baltimore, priority 2010, dated 2014).
No end group written: not given here.

Assays:
[1] = test system: Staphylococcus aureus ATCC 29213; experiment: vCC antibacterial assay, S. aureus; type: cell-based; conditions: 30 minutes exposure, 500 to 1.95 μM
Description: (§1) The inventors have now tested the bacterial killing capacity of the identified compounds. The antibacterial activity was determined using the vCC assay as discussed in Ericksen, B., Wu, Z., Lu, W. and Lehrer, R. I. (2005), “Antibacterial activity and specificity of the six human {alpha}-defensins. Antimicrob Agents” Chemother 49, 269-75.). All compounds were tested initially for killing of Staphylococcus aureus ATCC 29213. All compounds were dissolved in DiMethylSulfylOxide (DMSO) and exposed to bacteria for 30 minutes in concentrations ranging from 500 to 1.95 μM. Compounds effectively killing S. aureus were subsequently tested against E. coli ATCC 25922 to assay for strain-selectivity.

[2] = Surface Plasmon Resonance binding of compounds to immobilized 3-Lipid II; conditions: SPR, FIG. 5
Description: The present inventors examined if the identified compounds themselves directly interact with Lipid II, which would be expected if they mimic the binding of HNP-1. Binding of compounds was tested directly using Surface Plasmon Resonance with 3-Lipid II immobilized on the chip surface (FIG. 5).

[3] = test system: intestinal epithelial cell line Caco-2; experiment: Caco-2 cell viability, MTT assay; type: cell-based; conditions: Caco-2, 24 h
Description: Caco-2 cells were seeded at 2. 10^5 cells/ml and exposed to compounds ranging in concentration from 500 to 3.7125 μM. Cell viability was determined after 24 h by the MTT assay and is expressed as a percentage of the viability of untreated cells.

[4] = test system: E. coli ATCC 25922; experiment: vCC antibacterial assay, E. coli (strain-selectivity); type: cell-based; conditions: 30 minutes exposure, 500 to 1.95 μM
Description: as §1

[5] = test system: S. aureus; conditions: literature (Ericksen 2005; Wei 2009); cited from earlier work
[6] = ANTS/DPX leakage assay from large unilamellar vesicles; conditions: POPG LUVs, panel of six human α-defensins, FIG. 1
Description: Large unilamellar vesicles (LUVs) with the low molecular weight fluorophore/quencher pair (ANTS/DPX) encapsulated were prepared using the standard extrusion method. Specifically, phospholipids were dissolved in chloroform at a desired molar ratio, dried as a film by solvent evaporation. After removal of residual solvent, the lipid film was hydrated in the fluorescent solution containing 5 mM HEPES, 12.5 mM ANTS, 45 mM DPX, and 20 mM NaCl, pH 7.0, freeze-thawed for 10 cycles and extruded 10 times through 0.4-μm polycarbonate membranes. LUVs were separated from unencapsulated materials by gel filtration chromatography using a Sepharose CL-4B column eluted with 5 mM HEPES, 100 mM NaCl, pH 7.4 (high-salt). For leakage assays in a low-salt buffer, purified vesicles were further diluted with 5 mM HEPES containing 10 mM NaCl, pH 7.4.
Leakage of ANTS from LUVs, monitored on a LS-55 Perkin Elmer luminescence spectrometer, was characterized by an increase in fluorescence, which was quenched by DPX when encapsulated together inside liposomes (Ellens, H., et al., 1985, “H+- and Ca2+-induced fusion and destabilization of liposomes,” Biochemistry 24:3099-3106). 270 μl ANTS/DPX-encapsulated LUVs (in either high-salt or low-salt buffers) were added to each well of a 96-well plate to a final lipid concentration of 600 μM. 30 μl H2O was added to the first well of each row as a blank, and 30 μl 2.5% (v/v) Triton X-100 to the last (twelfth) well as the control for 100% leakage. Upon addition of 30 μl of a twofold dilution series of defensin, the fluorescence signal was recorded at 515 nm with an excitation wavelength of 353 nm, 10 nm bandwidths and a 390 nm cut-off filter in the emission path. Percent leakage is expressed as: % leakage=((Ft−F0)/(F100−F0))×100 where Ft is the fluorescence determined at different time points after addition of defensin, F0 is the background fluorescence of the “blank” cells, and F100 is the fluorescence of the control cells containing 0.25% Triton X-100. Lipid II Purification
Defensins are believed to kill bacteria by permeabilizing the membrane, causing leakage of intracellular content and eventually cell lysis and death. The present inventors tested the ability of six human α-defensins to induce leakage of fluorophores encapsulated in LUVs (See FIG. 1). […] (A) At high salt concentration (5 mM HEPES, 100 mM NaCl, pH 7.4). (B) At low salt concentration (5 mM HEPES, 10 mM NaCl, pH 7.4). LUVs were 250 nm in diameter and 600 μM (phospholipids) in concentration.
(A) Effects of surface charge on HNP1-induced leakage from LUVs of four different compositions: POPC (circle, surface charge=0), POPC/POPG=3:2 (square, surface charge=−0.4), POPC/POPG=2:3 (triangle, surface charge=−0.6), and POPG (diamond, surface charge=−1). (B) LUV (POPG:DPPC 1:1) leakage induced by L-HNP1 (circles) or D-HNP1 (squares). A two-fold dilution series of HNP1 peptides from 0.19 to 100 μg/ml was incubated with 600 μM LUVs for one hour before readings were taken. Error bars indicate the standard error in triplicate experiments.

3-ethyl-5-methyl-4-phenyl-2-[3-(1,3,3-trimethyl-1,3-dihydro-2H-indol-2-ylidene)prop-1-en-1-yl]-1,3-thiazol-3-ium [Compound 7771-0701]
killing of S. aureus [1]: very efficient in killing of S. aureus
binding to 3-Lipid II immobilized on the chip surface [2]: bind to Lipid II

Oc1ccc(C(c2ccc(O)cc2)c2ccc(F)cc2)cc1 [Compound 0251-0215, 4-[(4-fluorophenyl)(4-hydroxyphenyl)methyl]phenol]
killing of S. aureus [1]: very efficient in killing of S. aureus
binding to 3-Lipid II immobilized on the chip surface [2]: bind to Lipid II

OCc1ccc2c(c1)C1c3ccccc3C2c2ccccc21 [Compound 5100015, pentacyclo[6.6.6.0˜2,7˜.0˜9,14˜.0˜15,20˜]icosa-2,4,6,9,11,13,15,17,19-nonaen-4-ylmethanol]
killing of S. aureus [1]: very efficient in killing of S. aureus
binding to 3-Lipid II immobilized on the chip surface [2]: bind to Lipid II

CC[n+]1c(/C=C/C=C2C=C(/C=C/N(C)c3ccccc3)CC(C)(C)C/2)sc2ccccc21 [Compound 5107930, 2-[3-(5,5-dimethyl-3-{2-[methyl(phenyl)amino]vinyl}-2-cyclohexen-1-ylidene)-1-propen-1-yl]-3-ethyl-1,3-benzothiazol-3-ium iodide]
cytotoxicity [3]: Displays relatively low cytotoxicity
killing of S. aureus [1]: Effectively kills S. aureus at low concentrations
bactericidal activity against E. coli [4]: Shows little bactericidal activity against E. coli

HNP4: fourth human neutrophil α-defensin (VCSCRLVFCRRTELRVGNCLIGGVSFTYCCTRV; not fully specified; ends and bridges not checked; UniProt P12838 64-96, looked up)
bactericidal activity against S. aureus / Gram-positive bacteria [5]: ineffective against Gram-positive bacteria
membrane activity (leakage of ANTS-DPX from POPG LUVs) [6]: most membrane active defensin in the panel of six

B1: HD-5: α-defensin Human Defensin 5 (peptide, UniProt Q01523 20-94, looked up)
Defensin alpha 5: ESLQERADEATTQKQSGEDNQDLAISFAGNGLSALRTSGSQARATCYCRTGRCATRESLSGVCEISGRLYRLCCR
modifications: Defensin-5
bactericidal activity against S. aureus / Gram-positive bacteria [5]: potently bactericidal
membrane activity (leakage of ANTS-DPX from POPG LUVs) [6]: little membrane activity even at high concentrations
